Consider three compounds from US20060020035A1, “Bone marrow protection with N-acetyl-L-cysteine” (Oregon Health & Science University, priority 2004, published 2006).

Where two headings read alike, the source gives them in different places.

Data set [1] concerns total white cells, granulocytes, and platelets. As to the kind of experiment: Example 2: L-NAC and D-NAC on rat blood counts after buthionine sulfoximine and tri-drug chemotherapy. Type of data set: in vivo. Particulars: pretreatment; rats pretreated with buthionine sulfoximine, tri-drug chemotherapy. The source says: In the experiment shown in FIG. 4, rats were pretreated With buthionine sulfoximine to enhance the bone marrow toxicity of chemotherapy, and then treated with the tri-drug chemotherapy regimen with or without L-NAC or D-NAC.

Data set [2] has the same test system. The data set is described as follows: Major tumor study: blood counts after tri-drug chemotherapy with or without chemoprotection. Type of data set: in vivo, nude rats. The protocol:
(§1) Osmotic Blood-Brain Barrier Disruption. Anesthesia was induced with 5% isoflurane and maintained with propofol (650 μg/kg/min). Mannitol (25%, 37° C.) was infused cephalad into the left internal carotid artery via a left external carotid catheter (Remsen et al., Anesthesia Analgesia 88:559-67, 1999).
(§2) Aortic Infusion Technique. The left internal carotid artery was temporarily occluded, and agents were administered retrograde to the descending aorta through a left external carotid catheter (Neuwelt et al., Cancer Res 61:7868-74, 2001).

The nature of data set [3]: in vivo. Particulars: Long Evans, rat, maximum tolerated dose. As for the experimental part: as §1, §2
N-Acetylcysteine Toxicity. N-Acetyl-L-cysteine (N-acetylcysteine, Mucomyst; Roxane Laboratories, Inc., Columbus, Ohio) was given by aortic infusion 30 min (n=7) or 60 min (n=10) before blood brain barrier disruption in normal Long Evans rats. Doses ranged from 400 to 1500 mg/kg in 3 ml infused at 0.6 ml/min. Rats were sacrificed 6 days after treatment or at signs of acute neurotoxicity (head tilt, circling, moribund).

The nature of data set [4]: N-Acetylcysteine clearance from rat blood (serum concentration, colorimetric kit and HPLC). The class given is in vivo, Long Evans rats. The protocol: N-Acetylcysteine Clearance. […] Blood samples (0.5 ml) were collected 5, 15, 30, 60, and 90 min after thiol administration, and serum was evaluated for N-acetylcysteine concentration. Serum N-acetylcysteine concentrations were measured using the Bioxytech GSH-400 colorimetric kit (Oxis Research, Portland, Oreg.). The colorimetric assay was validated by high-pressure liquid chromatography (HPLC) analysis of serum thiols for n=2 rats from groups B and D. Deproteinated serum samples were diluted in 160 mM KH2PO4, pH 3. Thiols were measured by electrochemical detection using a Waters radial compression module with 10-μm C18 column (Waters, Milford, Mass.), an ESA 5010 analytical cell, and an ESA 5100A coulochem detector (ESA Inc., Chelmsford, Mass.). Area under the curve was compared with known concentrations prepared in control sera.

The conditions of data set [5]: previously reported (Neuwelt et al. 1998); cited from earlier work.
Data set [6] relates to bone marrow. Particulars: administered immediately after chemotherapy, alone or in combination with N-acetylcysteine (Neuwelt et al. 2001); cited from earlier work.
Data set [7] has as its system platelets. Particulars: 8 g/m^2 intravenous 2, 4, or 8 h after high-dose carboplatin; blood counts 6 days after chemotherapy.
Protocol: Pilot study 2 evaluated various timing schemes for chemoprotection. Normal rats (n=54, six rats per group) were treated with a tri-drug chemotherapy regimen consisting of carboplatin (200 mg/m^2), melphalan (10 mg/m^2 Alkeran; GlaxoSmithKline, Uxbridge, Middlesex, UK), and etoposide phosphate (100 mg/m^2 Etopophos; Bristol-Meyers Squibb Co.), administered in the right carotid artery. […] For both pilot studies 1 and 2, blood counts were determined at 6 days after chemotherapy, in comparison with untreated controls. For blood count analysis, 0.5 ml of whole blood collected in EDTA microtubes was analyzed in duplicate on a Hemavet 850 (CDC Technologies Inc., Oxford, Conn.).
Setting [8] is: 1000 mg/kg by aortic infusion, 60 min before chemotherapy.

For the compound `CC(=O)N[C@H](CS)C(=O)O` [D-NAC, N-acetyl-D-cysteine], the “bone marrow chemoprotective activity (total white cells, granulocytes, and platelets)” value in data set [1] was “not bone marrow protective”.
For `CC(=O)N[C@@H](CS)C(=O)O` [N-acetylcysteine, N-acetyl-L-cysteine], in data set [2] (setting [8]), the protection for granulocytes entry is “significantly protective” and the “protection for white cells” value was “significantly protective”. In data set [2] (N-acetylcysteine alone, 1000 mg/kg by aortic infusion, 60 min before chemotherapy), the platelet chemoprotection result is “not significant”. In data set [3] (aortic infusion 30 min before blood-brain barrier disruption), the MTD (usually the highest dose tested that stayed within the study's limit of toxicity) at 6 days stood at 500 mg/kg. In data set [3] (aortic infusion 60 min before blood-brain barrier disruption), this compound had an MTD at 6 days of 1000 mg/kg. Besides, in data set [1], the “bone marrow chemoprotective activity (total white cells, granulocytes, and platelets)” value is “significantly reduced chemotherapy toxicity”. For the same compound, the maximum blood concentration in data set [4] (1000 mg/kg intra-arterially, 5 min after infusion) was 11.2 ± 1.3 mM. The “blood concentration at the time of chemotherapy delivery” value in data set [4] (1000 mg/kg intra-arterially, 60 min after infusion) turned out to be 200 ± 100 µM. In addition, the half-life (as a rule, the time in which the quantity being followed falls by half) in data set [4] (Long Evans, rat, serum, other: intravenous or aortic infusion (all groups), all groups: 140-1200 mg/kg, intravenous or aortic infusion) was in the range of 9 to 11 min.
For `O=S([O-])([O-])=S.[Na+].[Na+]` [sodium thiosulfate], the “protection against chemotherapy-induced bone marrow suppression” value in data set [2] (sodium thiosulfate 8 g/m^2 4 and 8 h after chemotherapy, with or without N-acetylcysteine 1000 mg/kg 60 min before) is recorded as “minimal protective effect”. In addition, in data set [5], the half-life was 15 min. The “bone marrow chemoprotective activity” value in data set [6] is recorded as “minimal bone marrow chemoprotective activity”. The platelet chemoprotection entry in data set [7] is “delaying sodium thiosulfate administration improved platelet chemoprotection”.
